Molecular target: human MRGPRD (Homo sapiens, UniProt Q8TDS7)
Test: MRGPRD antagonist activity, IP-One HTRF assay in CHO cells stably expressing human MRGPRD (versus 100 μM β-Alanine agonist)
Assay type: cell-based
Outline: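 CHO cells stably expressing human MRGPRD, plated overnight at 37 °C, were treated with antagonist plus agonist in Tris-HCl/NaCl/LiCl buffer pH 8, incubated 1 h at 37 °C then 1 h at room temperature. IP-1 accumulation read by HTRF; IC50 and percent antagonism of maximum efficacy averaged, SEM reported.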

human MRGPRD, sequence (Q8TDS7 whole entry): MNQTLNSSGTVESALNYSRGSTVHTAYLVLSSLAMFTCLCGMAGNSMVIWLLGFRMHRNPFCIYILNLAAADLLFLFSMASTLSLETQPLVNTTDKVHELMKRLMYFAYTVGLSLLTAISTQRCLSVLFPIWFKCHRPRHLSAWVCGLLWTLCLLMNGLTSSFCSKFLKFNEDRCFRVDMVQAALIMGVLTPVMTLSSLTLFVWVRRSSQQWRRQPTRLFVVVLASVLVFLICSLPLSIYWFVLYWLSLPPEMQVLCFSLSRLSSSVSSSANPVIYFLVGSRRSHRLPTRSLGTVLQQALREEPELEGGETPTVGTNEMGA

| SMILES | IC50 |
| --- | --- |
| COc1cc(C#N)ccc1-c1ccc(-n2nnc(C(=O)NC3(c4cncc(Cl)c4)CC3)c2C2CC2)cc1 [Compound 18-15] | 500 to 1000 nM |
| Cc1cc(C#N)ccc1-c1ccc(-n2nnc(C(=O)NC3(c4cncc(Cl)c4)CC3)c2C2CC2)cc1 [Compound 18-16] | 500 to 1000 nM |
| Cc1nn(C)c(C)c1-c1ccc(-n2nnc(C(=O)NC3(c4cccnc4)CC3)c2C2CC2)cc1 [Compound 18-17] | 1000 to 3000 nM |
| N#Cc1ccc(-c2ccc(-n3nnc(C(=O)NC4(c5cncc(F)c5)CC4)c3C3CC3)cc2)cc1 [Compound 18-18] | 1000 to 3000 nM |
| O=C(NC1(c2cncc(Cl)c2)CC1)c1nnn(-c2ccc(-c3cnn(Cc4ccccc4)c3)cc2)c1C1CC1 [Compound 18-19] | 1000 to 3000 nM |
| CC(=O)c1cccc(-c2cccc(-n3nnc(C(=O)NC4(c5cccnc5)CC4)c3C3CC3)c2)c1 [Compound 18-20] | 100 to 500 nM |
| N#CCc1ccc(-c2cccc(-n3nnc(C(=O)NC4(c5cccnc5)CC4)c3C3CC3)c2)cc1 [Compound 18-21] | 1000 to 3000 nM |
| CC(=O)c1cccc(-c2cccc(-n3nnc(C(=O)NC(C)c4nc5ccccc5n4C)c3C3CC3)c2)c1 (stereo not shown) [Compound 18-22] | > 3000 nM |
| Cc1nn(C)c(C)c1-c1ccc(-n2nnc(C(=O)NC3(c4cccnc4)CC3)c2C(C)C)cc1 [Compound 18-23] | 100 to 500 nM |
| COc1ccc(C2(NC(=O)c3nnn(-c4ccc(-c5ccc(C#N)cc5)cc4)c3C(C)C)CC2)cn1 [Compound 18-24] | 500 to 1000 nM |
| COc1ccc(C2(NC(=O)c3nnn(-c4ccc(-c5c(C)nn(C)c5C)cc4)c3C(C)C)CC2)cn1 [Compound 18-25] | 500 to 1000 nM |
| CC(C)c1c(C(=O)NC2(c3cccnc3)CC2)nnn1-c1ccc(-c2ccc(C#N)c(F)c2)cc1 [Compound 18-26] | 1000 to 3000 nM |
| CCn1cc(C2(NC(=O)c3nnn(-c4ccc(-c5ccc(C#N)nc5)cc4)c3C(C)C)CC2)cn1 [Compound 18-27] | 1000 to 3000 nM |
| COc1ccc(C2(NC(=O)c3nnn(-c4ccc(-c5ccccc5)cc4)c3C(C)C)CC2)cn1 [Compound 18-28] | 1000 to 3000 nM |
| CC(C)c1c(C(=O)NC2(c3cccnc3)CC2)nnn1-c1ccc(-c2ccc(C#N)nc2)cc1 [Compound 18-29] | > 3000 nM |
| CC(C)c1c(C(=O)NC2(c3cccnc3)CC2)nnn1-c1ccc(-c2ccccc2)cc1 [Compound 18-30] | > 3000 nM |

| SMILES | IC50 |
| --- | --- |
| Cc1ccc(CNC(=O)c2nnn(-c3ccc(-c4c(C)nn(C)c4C)cn3)c2C2CC2)cn1 [Compound 19-1] | 500 to 1000 nM |
| CCn1nc(C)c(-c2ccc(-n3nnc(C(=O)NC4(c5cccnc5)CC4)c3C3CC3)cc2)c1C [Compound 19-2, 5-cyclopropyl-1-(4-(1-ethyl-3,5-dimethyl-1H-pyrazol-4-yl)phenyl)-N-(1-(pyridin-3-yl)cyclopropyl)-1H-1,2,3-triazole-4-carboxamide] | 100 to 500 nM |
| Cc1nn2ccccc2c1-c1ccc(-n2nnc(C(=O)NC3(c4cccnc4)CC3)c2C2CC2)cc1 [Compound 19-3] | 500 to 1000 nM |
| COc1ccc(C2(NC(=O)c3nnn(-c4ccc(-c5c(C)nn6ccccc56)cc4)c3C(C)C)CC2)cn1 [Compound 19-4] | 100 to 500 nM |
| Cc1cc(NC(=O)c2nnn(-c3ccc(-c4c(C)nn(CC(F)(F)F)c4C)cc3)c2C2CC2)ccn1 [Compound 20-1, 5-cyclopropyl-1-(4-(3,5-dimethyl-1-(2,2,2-trifluoroethyl)-1H-pyrazol-4-yl)phenyl)-N-(2-methylpyridin-4-yl)-1H-1,2,3-triazole-4-carboxamide] | < 100 nM |
| Cc1ccc(CNC(=O)c2nnn(-c3ccc(-c4c(C)nn(C)c4C)cc3F)c2C2CC2)cn1 [Compound 21-1, 5-cyclopropyl-1-(2-fluoro-4-(1,3,5-trimethyl-1H-pyrazol-4-yl)phenyl)-N-((6-methylpyridin-3-yl)methyl)-1H-1,2,3-triazole-4-carboxamide] | < 100 nM |
| COc1cc(-c2c(C)nn(C)c2C)ccc1-n1nnc(C(=O)NCc2ccc(C)nc2)c1C1CC1 [Compound 21-2] | 100 to 500 nM |
| Cc1cc(NC(=O)c2nnn(-c3ccc(-c4ccc(C#N)cc4)cc3F)c2C2CC2)ccn1 [Compound 22-1, 1-(4′-cyano-3-fluoro-[1,1′-biphenyl]-4-yl)-5-cyclopropyl-N-(2-methylpyridin-4-yl)-1H-1,2,3-triazole-4-carboxamide] | 100 to 500 nM |
| N#Cc1ccc(-c2ccc(-n3nnc(C(=O)NC4(c5cccnc5)CC4)c3C3CC3)c(F)c2)cc1 [Compound 22-2] | 500 to 1000 nM |
| CCn1cc(CNC(=O)c2nnn(-c3ccc(-c4ccc(C#N)cc4)cc3F)c2C2CC2)cn1 [Compound 22-3] | 1000 to 3000 nM |
| CCn1cc(CNC(=O)c2nnn(-c3ccc(-c4ccc(C#N)cc4)cn3)c2C2CC2)cn1 [Compound 22-4] | 1000 to 3000 nM |
| Cc1cc(NC(=O)c2nnn(C3CC=C(c4ccc(C#N)cc4)CC3)c2C2CC2)ccn1 (stereo not shown) [Compound 23-1, 1-(4′-cyano-2,3,4,5-tetrahydro-[1,1′-biphenyl]-4-yl)-5-cyclopropyl-N-(2-methylpyridin-4-yl)-1H-1,2,3-triazole-4-carboxamide] | 100 to 500 nM |
| Cc1ccc(-n2nnc(C(=O)Nc3ccnc(C(F)(F)F)c3)c2C(C)C)cc1 [Compound 24-1, 5-isopropyl-1-(p-tolyl)-N-(2-(trifluoromethyl)pyridin-4-yl)-1H-1,2,3-triazole-4-carboxamide] | 1000 to 3000 nM |
| CC(=O)c1cccc(-c2cc(-n3nnc(C(=O)Nc4ccncc4)c3C3CC3)ccc2-c2c(C)nn(C)c2C)c1 [Compound 25-1, 1-(3′-acetyl-6-(1,3,5-trimethyl-1H-pyrazol-4-yl)-[1,1′-biphenyl]-3-yl)-5-cyclopropyl-N-(pyridin-4-yl)-1H-1,2,3-triazole-4-carboxamide] | 1000 to 3000 nM |
| CCO/C=C/c1cc(-n2nnc(C(=O)Nc3ccncc3)c2C2CC2)ccc1-c1c(C)nn(C)c1C [Compound 25-2] | 1000 to 3000 nM |

Reference: patent US20260001871A1, “TRIAZOLE DERIVATIVES AS MODULATORS OF MAS-RELATED G-PROTEIN RECEPTOR D” (ESCIENT PHARMACEUTICALS, INC., priority 2022, published 2026)
